This assay relates to Vaccinia virus. Kind of assay: Concentration required to reduce vaccinia virus induced cytopathogenicity in rabbit cell kidney culture. The note with it: Orthopoxvirus vaccinia. It is filed as functional, organism-based. In general terms: Damage to the host cells serves as the signal in cytopathic effect assays.

`O=c1nc(-n2cncn2)c(/C=C/Br)cn1[C@H]1C[C@H](O)[C@@H](CO)O1` returned a Concentration of 7 µg/mL.

With `Cc1cn(C2CC(O)C(CCl)O2)c(=O)nc1-n1cncn1` (centres undefined), the Concentration is > 10 µg/mL.

In the case of `CC(=O)OC[C@H]1O[C@@H](n2cc(/C=C/Br)c(=O)[nH]c2=O)C[C@@H]1OC(C)=O`, the Concentration is 40 µg/mL.

In turn, `O=c1[nH]c(=O)n([C@H]2C[C@H](O)[C@@H](CO)O2)cc1/C=C/Br` [BRIVUDINE] registered a Concentration of 10 µg/mL.

`CC(=O)OC[C@H]1O[C@@H](n2cc(C)c(-n3cncn3)nc2=O)C[C@@H]1OC(C)=O`: the Concentration was > 40 µg/mL.

As to `O=c1nc(-n2cncn2)c(/C=C/Br)cn1C1CC(O)C(CCl)O1` (centres undefined), the Concentration was > 100 µg/mL.

Molecule `CC(=O)OC[C@H]1O[C@@H](n2cc(/C=C/Br)c(-n3cncn3)nc2=O)C[C@@H]1OC(C)=O` returned a Concentration of 20 µg/mL.

Turning to `Nc1nc(=O)n([C@H]2C[C@H](O)[C@@H](CO)O2)cc1/C=C/Br`, the Concentration is > 400 µg/mL.

As to `Cc1cn([C@H]2C[C@H](O)[C@@H](CO)O2)c(=O)nc1-n1cncn1`, the Concentration is > 40 µg/mL.

Source of the values: ChEMBL document CHEMBL1123958, “Synthesis and antiviral properties of (E)-5-(2-bromovinyl)-2'-deoxycytidine-related compounds” (J Med Chem, 1988).
